This note sets out measurements from patent US11725036B2, “Modified lipidated relaxin B chain peptides and their therapeutic use” (Sanofi, priority 2018, dated 2023).

This assay has as its target T1, RXFP1 (Homo sapiens, UniProt Q9HBX9).
T1 construct: OVCAR5 cells expressing endogenous RXFP1; endogenous in cells; host or cells: OVCAR5
T1 sequence (Q9HBX9 1-757): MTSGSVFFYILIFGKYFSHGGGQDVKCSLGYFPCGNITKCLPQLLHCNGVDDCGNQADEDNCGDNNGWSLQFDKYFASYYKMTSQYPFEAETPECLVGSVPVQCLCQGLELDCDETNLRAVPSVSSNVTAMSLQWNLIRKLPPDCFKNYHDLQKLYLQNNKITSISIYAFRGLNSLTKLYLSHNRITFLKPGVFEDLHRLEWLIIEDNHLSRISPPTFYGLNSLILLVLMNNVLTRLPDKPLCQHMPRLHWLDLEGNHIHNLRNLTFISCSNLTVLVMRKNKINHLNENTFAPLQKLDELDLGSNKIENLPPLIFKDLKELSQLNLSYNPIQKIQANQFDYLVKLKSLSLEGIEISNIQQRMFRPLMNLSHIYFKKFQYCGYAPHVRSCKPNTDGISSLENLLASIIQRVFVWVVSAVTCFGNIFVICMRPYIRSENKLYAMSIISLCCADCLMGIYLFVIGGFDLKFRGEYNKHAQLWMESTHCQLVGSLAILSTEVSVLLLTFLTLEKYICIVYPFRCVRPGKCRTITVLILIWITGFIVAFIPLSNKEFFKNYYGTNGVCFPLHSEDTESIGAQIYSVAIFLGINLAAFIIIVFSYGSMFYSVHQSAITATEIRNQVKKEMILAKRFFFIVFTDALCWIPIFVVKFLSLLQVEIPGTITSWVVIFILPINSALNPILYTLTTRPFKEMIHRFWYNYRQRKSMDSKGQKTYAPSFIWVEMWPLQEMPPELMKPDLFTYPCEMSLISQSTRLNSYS
Nature of the assay: OVCAR5 cAMP assay (HTRF). Format: cell-based. The note with it: for EC50: OVCAR 5 cells expressing endogenous RXFP1, cAMP readout; for Emax: OVCAR 5 cells, maximal cAMP relative to H2-relaxin. The method, boiled down:
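Peptide agonism measured as intracellular cAMP (HTRF) after 30 min at 37° C in serum-free medium, following 40 min 1 mM IBMX preincubation of OVCAR5 cells. Nonlinear regression gave EC50; Emax % = 100 × compound maximal cAMP / H2-relaxin maximal cAMP.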
(Cyclic AMP is a second messenger, typically raised through Gs and lowered through Gi signalling.)

Starred links: 1 amine or outer side, 2 acyl side, 3 side chain; linkers in the order of their positions; H or OH if unused. Non-standard residues stand in square brackets, D forms with d. Residues, ends and D or L forms follow the SMILES beside them. Groups on a side chain read outwards from the residue. *: point of attachment. X5 = CCCCCCCCCCCCCCCC(=O)N[C@@H](CCC(=O)N[C@@H](CCC(=O)N[C@@H](CCC(=O)NCCCOCCOCCOCCCNC(=O)CCC(=O)NCCCOCCOCCOCCCNC(=O)CCC(=O)NCCCOCCOCCOCCCNC(=O)CCC(=O)NCCCOCCOCCOCCCN*)C(=O)O)C(=O)O)C(=O)O; X11 = CCCCCCCCCCCCCCCCCC(=O)N[C@@H](CCC(=O)N[C@@H](CCC(=O)N[C@@H](CCC(=O)N[C@@H](CCC(=O)NCCCOCCOCCOCCCNC(=O)CCC(=O)NCCCOCCOCCOCCCNC(=O)CCC(=O)NCCCOCCOCCOCCCN*)C(=O)O)C(=O)O)C(=O)O)C(=O)O; X3 = CCCCCCCCCCCCCCCCCC(=O)N[C@@H](CCC(=O)N[C@@H](CCC(=O)N[C@@H](CCC(=O)NCCCOCCOCCOCCCNC(=O)CCC(=O)NCCCOCCOCCOCCCNC(=O)CCC(=O)NCCCOCCOCCOCCCN*)C(=O)O)C(=O)O)C(=O)O; X1 = CCCCCCCCCCCCCCCC(=O)N[C@@H](CCC(=O)N[C@@H](CCC(=O)N[C@@H](CCC(=O)NCCCOCCOCCOCCCNC(=O)CCC(=O)NCCCOCCOCCOCCCNC(=O)CCC(=O)NCCCOCCOCCOCCCN*)C(=O)O)C(=O)O)C(=O)O; Trp(5-Cl) = N[C@@H](Cc1c[nH]c2ccc(Cl)cc12)C(=O)O; Cit = NC(=O)NCCC[C@H](N)C(=O)O; Suc = O=C(CCC(=O)[*:2])[*:1]; αMeK = C[C@](N)(CCCCN)C(=O)O; Aib = CC(C)(N)C(=O)O

Take `CCCCCCCCCCCCCCCC(=O)N[C@@H](CCC(=O)N[C@@H](CCC(=O)N[C@@H](CCC(=O)NCCCOCCOCCOCCCNC(=O)CCC(=O)NCCCOCCOCCOCCCNC(=O)CCC(=O)NCCCOCCOCCOCCCNC(=O)CCC(=O)NCCCC[C@H](NC(=O)CNC(=O)[C@H](CCC(=O)O)NC(=O)C(C)(C)NC(=O)C(C)(C)NC(=O)[C@@H](NC(=O)[C@H](CCCCNC(C)=O)NC(=O)[C@H](C)NC(=O)[C@H](CCCNC(=N)N)NC(=O)[C@@H](NC(=O)[C@H](CCCCN)NC(=O)[C@H](CCC(=O)O)NC(=O)[C@H](CCCNC(=N)N)NC(=O)CNC(=O)[C@H](CCC(=O)O)NC(=O)[C@H](CC(C)C)NC(C)=O)C(C)C)[C@@H](C)CC)C(=O)N[C@@H](CO)C(=O)N[C@@H](CCCCN)C(=O)N[C@@H](Cc1c[nH]c2ccccc12)C(=O)N[C@@H](CO)C(=O)NC(C)(C)C(=O)N[C@@H](CCCNC(=N)N)C(=O)N[C@@H](CCCCN)C(=O)N[C@@H](CCCCNC(C)=O)C(N)=O)C(=O)O)C(=O)O)C(=O)O` [compound 83] (Ac-LEGREKVRAK(Ac)I[Aib][Aib]EGK([Suc-X1])SKWS[Aib]RKK(Ac)-NH2): the EC50 was found to be 0.25 nM and the Emax was determined as 94%.

`CCCCCCCCCCCCCCCC(=O)N[C@@H](CCC(=O)N[C@@H](CCC(=O)N[C@@H](CCC(=O)NCCCOCCOCCOCCCNC(=O)CCC(=O)NCCCOCCOCCOCCCNC(=O)CCC(=O)NCCCOCCOCCOCCCNC(=O)CCC(=O)NCCCC[C@H](NC(=O)CNC(=O)[C@H](CCC(=O)O)NC(=O)C(C)(C)NC(=O)C(C)(C)NC(=O)[C@@H](NC(=O)[C@H](CCCCNC(C)=O)NC(=O)[C@H](C)NC(=O)[C@H](CCCNC(=N)N)NC(=O)[C@@H](NC(=O)[C@H](CCCCN)NC(=O)[C@H](CCC(=O)O)NC(=O)[C@H](CCCNC(=N)N)NC(=O)CNC(=O)[C@H](CCC(=O)O)NC(=O)[C@H](CC(C)C)NC(C)=O)C(C)C)[C@@H](C)CC)C(=O)N[C@@H](CO)C(=O)N[C@@H](CCCCN)C(=O)N[C@@H](Cc1c[nH]c2ccccc12)C(=O)N[C@@H](CO)C(=O)NC(C)(C)C(=O)N[C@@H](CCCNC(=N)N)C(=O)N[C@@H](C)C(=O)N[C@@H](CCCCN)C(N)=O)C(=O)O)C(=O)O)C(=O)O` [compound 73] (Ac-LEGREKVRAK(Ac)I[Aib][Aib]EGK([Suc-X1])SKWS[Aib]RAK-NH2) had an EC50 of 0.2 nM and an Emax of 95%.

`CCCCCCCCCCCCCCCCCC(=O)N[C@@H](CCC(=O)N[C@@H](CCC(=O)N[C@@H](CCC(=O)N[C@@H](CCC(=O)NCCCOCCOCCOCCCNC(=O)CCC(=O)NCCCOCCOCCOCCCNC(=O)CCC(=O)NCCCOCCOCCOCCCNC(=O)CCC(=O)NCCCC[C@H](NC(=O)CNC(=O)[C@H](CCC(=O)O)NC(=O)C(C)(C)NC(=O)C(C)(C)NC(=O)[C@@H](NC(=O)[C@H](CCCCNC(C)=O)NC(=O)[C@H](C)NC(=O)[C@H](CCCNC(=N)N)NC(=O)[C@@H](NC(=O)[C@H](CCCCN)NC(=O)[C@H](CCC(=O)O)NC(=O)[C@H](CCCNC(=N)N)NC(=O)CNC(=O)[C@H](CCC(=O)O)NC(=O)[C@H](CC(C)C)NC(C)=O)C(C)C)[C@@H](C)CC)C(=O)N[C@@H](CO)C(=O)N[C@H](C(=O)N[C@@H](Cc1c[nH]c2ccccc12)C(=O)N[C@@H](CO)C(=O)NC(C)(C)C(=O)N[C@@H](CCCNC(=N)N)C(=O)N[C@@H](CCCCN)C(=O)N[C@@H](CCCCNC(C)=O)C(N)=O)[C@@H](C)O)C(=O)O)C(=O)O)C(=O)O)C(=O)O` [compound 51] (Ac-LEGREKVRAK(Ac)I[Aib][Aib]EGK([Suc-X11])STWS[Aib]RKK(Ac)-NH2) showed an EC50 of 0.1 nM and an Emax of 98%.

The compound `CCCCCCCCCCCCCCCC(=O)N[C@@H](CCC(=O)N[C@@H](CCC(=O)N[C@@H](CCC(=O)NCCCOCCOCCOCCCNC(=O)CCC(=O)NCCCOCCOCCOCCCNC(=O)CCC(=O)NCCCOCCOCCOCCCNC(=O)CCC(=O)NCCCC[C@H](NC(=O)CNC(=O)[C@H](CCC(=O)O)NC(=O)C(C)(C)NC(=O)C(C)(C)NC(=O)[C@@H](NC(=O)[C@H](CCCCNC(C)=O)NC(=O)[C@H](C)NC(=O)[C@H](CCCNC(=N)N)NC(=O)[C@@H](NC(=O)[C@H](CCCNC(=N)N)NC(=O)[C@H](CCC(=O)O)NC(=O)[C@H](CCCNC(=N)N)NC(=O)CNC(=O)[C@H](CCC(=O)O)NC(=O)[C@H](CC(C)C)NC(C)=O)C(C)C)[C@@H](C)CC)C(=O)N[C@@H](CO)C(=O)N[C@H](C(=O)N[C@@H](Cc1c[nH]c2ccc(Cl)cc12)C(=O)N[C@@H](CO)C(=O)NC(C)(C)C(=O)N[C@@H](CCCNC(=N)N)C(=O)N[C@@H](CCCNC(=N)N)C(=O)N[C@@H](CCCCNC(C)=O)C(N)=O)[C@@H](C)O)C(=O)O)C(=O)O)C(=O)O` [compound 80] (Ac-LEGRERVRAK(Ac)I[Aib][Aib]EGK([Suc-X1])ST[Trp(5-Cl)]S[Aib]RRK(Ac)-NH2) registered an EC50 of 0.63 nM and an Emax of 93%.

Compound `CCCCCCCCCCCCCCCC(=O)N[C@@H](CCC(=O)N[C@@H](CCC(=O)N[C@@H](CCC(=O)NCCCOCCOCCOCCCNC(=O)CCC(=O)NCCCOCCOCCOCCCNC(=O)CCC(=O)NCCCOCCOCCOCCCNC(=O)CCC(=O)NCCCC[C@H](NC(=O)CNC(=O)[C@H](CCC(=O)O)NC(=O)C(C)(C)NC(=O)C(C)(C)NC(=O)[C@@H](NC(=O)[C@H](CCCCNC(C)=O)NC(=O)[C@H](C)NC(=O)[C@H](CCCNC(=N)N)NC(=O)[C@@H](NC(=O)[C@H](Cc1ccccc1)NC(=O)[C@H](CCC(=O)O)NC(=O)[C@H](CCCNC(=N)N)NC(=O)CNC(=O)[C@H](CCC(=O)O)NC(=O)[C@H](CC(C)C)NC(C)=O)C(C)C)[C@@H](C)CC)C(=O)N[C@@H](CO)C(=O)N[C@H](C(=O)N[C@@H](Cc1c[nH]c2ccccc12)C(=O)N[C@@H](CO)C(=O)NC(C)(C)C(=O)N[C@@H](CCCNC(=N)N)C(=O)N[C@@H](CCCNC(=N)N)C(=O)N[C@@H](CCCCNC(C)=O)C(N)=O)[C@@H](C)O)C(=O)O)C(=O)O)C(=O)O` [compound 39] (Ac-LEGREFVRAK(Ac)I[Aib][Aib]EGK([Suc-X1])STWS[Aib]RRK(Ac)-NH2) showed an EC50 of 8.7 nM and an Emax of 93%.

In turn, `CCCCCCCCCCCCCCCCCC(=O)N[C@@H](CCC(=O)N[C@@H](CCC(=O)N[C@@H](CCC(=O)NCCCOCCOCCOCCCNC(=O)CCC(=O)NCCCOCCOCCOCCCNC(=O)CCC(=O)NCCCOCCOCCOCCCNC(=O)CCC(=O)NCCCC[C@H](NC(=O)CNC(=O)[C@H](CCC(=O)O)NC(=O)C(C)(C)NC(=O)C(C)(C)NC(=O)[C@@H](NC(=O)[C@H](CCCNC(N)=O)NC(=O)[C@H](C)NC(=O)[C@H](CCCNC(=N)N)NC(=O)[C@@H](NC(=O)[C@H](CCCCN)NC(=O)[C@H](CCC(=O)O)NC(=O)[C@H](CCCNC(=N)N)NC(=O)CNC(=O)[C@H](CCC(=O)O)NC(=O)[C@H](CC(C)C)NC(C)=O)C(C)C)[C@@H](C)CC)C(=O)N[C@@H](CO)C(=O)N[C@H](C(=O)N[C@@H](Cc1ccccc1)C(=O)N[C@@H](CO)C(=O)N[C@@](C)(CCCCN)C(=O)N[C@@H](CCCNC(=N)N)C(=O)N[C@@H](C)C(=O)N[C@@H](CCCCNC(C)=O)C(N)=O)[C@@H](C)O)C(=O)O)C(=O)O)C(=O)O` [compound 56] (Ac-LEGREKVRA[Cit]I[Aib][Aib]EGK([Suc-X3])STFS[αMeK]RAK(Ac)-NH2) showed an EC50 of 0.15 nM and an Emax of 91%.

`CCCCCCCCCCCCCCCC(=O)N[C@@H](CCC(=O)N[C@@H](CCC(=O)N[C@@H](CCC(=O)NCCCOCCOCCOCCCNC(=O)CCC(=O)NCCCOCCOCCOCCCNC(=O)CCC(=O)NCCCOCCOCCOCCCNC(=O)CCC(=O)NCCCOCCOCCOCCCNC(=O)CCC(=O)NCCCC[C@H](NC(=O)CNC(=O)[C@H](CCC(=O)O)NC(=O)C(C)(C)NC(=O)C(C)(C)NC(=O)[C@@H](NC(=O)[C@H](CCCCNC(C)=O)NC(=O)[C@H](C)NC(=O)[C@H](CCCNC(=N)N)NC(=O)[C@@H](NC(=O)[C@H](CCCNC(=N)N)NC(=O)[C@H](CCC(=O)O)NC(=O)[C@H](CCCNC(=N)N)NC(=O)CNC(=O)[C@H](CCC(=O)O)NC(=O)[C@H](CC(C)C)NC(C)=O)C(C)C)[C@@H](C)CC)C(=O)N[C@@H](CO)C(=O)N[C@H](C(=O)N[C@@H](Cc1ccccc1)C(=O)N[C@@H](CO)C(=O)NC(C)(C)C(=O)N[C@@H](CCCNC(=N)N)C(=O)N[C@@H](CCCNC(=N)N)C(=O)N[C@@H](CCCCNC(C)=O)C(N)=O)[C@@H](C)O)C(=O)O)C(=O)O)C(=O)O` [compound 77] (Ac-LEGRERVRAK(Ac)I[Aib][Aib]EGK([Suc-X5])STFS[Aib]RRK(Ac)-NH2) came in with an EC50 of 0.11 nM and an Emax of 98%.

A word on the EC50: it is the concentration needed to bring the measured effect to its halfway point. A low value points to an effect from little substance. By Emax is commonly meant the maximal effect, on the per cent scale that the assay sets.
